# Measurements from US20200231638A1, “STABILIZED ANTI-MICROBIAL PEPTIDES” (priority 2015, published 2020).
# Bridge positions count the residues as written; N and C are the ends. Square brackets hold non-standard residues; d marks the D form. Peptide text beside a SMILES is read from it. S5 = C=CCCC[C@](C)(N)C(=O)O; Nle = CCCC[C@H](N)C(=O)O
# Assays:
# [1] = test system: human red blood cells; type: cell-based; conditions: red cells of human, 1 h, 25
# Method in brief: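 Hemolysis expressed as absorbance of released hemoglobin (570 nm) normalized between untreated and 1% Triton-X100 controls, with MHC taken as peptide concentration giving under 1% release. Peptide dilutions were exposed for 1 h at 37° C to a 1% (v/v) suspension of washed human red cells in PBS.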
# [2] = test system: E. coli; type: cell-based, Escherichia coli
# Method in brief: (§1)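 Broth microdilution in anion-exchange-refined Mueller-Hinton broth; serially diluted peptide mixed with bacteria at 5×10^5 CFU/ml final inoculum. Incubated 20-24 hours at 37° C. MIC taken as lowest peptide concentration with no visible growth.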
# [3] = test system: P. aeruginosa; type: cell-based, Pseudomonas aeruginosa
# Method in brief: as §1
# [4] = test system: S. aureus; type: cell-based, Staphylococcus aureus
# Method in brief: as §1
# [5] = test system: B. cereus; type: cell-based, Bacillus cereus
# Method in brief: as §1
Structure (SMILES),% Hemolysis at 25 μg/ml [1] [%],MIC E. coli [2] [µg/mL],MIC P. aeruginosa [3] [µg/mL],MIC S. aureus [4] [µg/mL],MIC B. cereus [5] [µg/mL]
"CCCC[C@H](NC(=O)[C@]1(C)CCCC=CCCC[C@](C)(NC(=O)[C@H](C)NC(=O)[C@H](CCCCN)NC(=O)[C@H](C)NC(=O)[C@H](Cc2ccccc2)NC(=O)[C@H](CCCCN)NC(=O)[C@H](CCCCN)NC(=O)[C@H](C)NC(=O)[C@H](CO)NC(=O)[C@H](Cc2c[nH]cn2)NC(=O)[C@H](CC(C)C)NC(=O)[C@H](Cc2ccccc2)NC(=O)[C@H](CCCCN)NC(=O)CNC(=O)[C@@H](NC(=O)CN)[C@@H](C)CC)C(=O)N[C@@H](C(C)C)C(=O)NCC(=O)N[C@@H](CCC(=O)O)C(=O)N1)C(=O)N[C@@H](CC(N)=O)C(=O)N[C@@H](CO)C(N)=O [Mag(i + 4)15(G13A), GIGKFLHSAKKFAKAXVGEXBNS] (H-GIGKFLHSAKKFAKA[S5]VGE[S5][Nle]NS-NH2; staple 16-20)",20.5,1.6,6.2,3.1,3.1
"CCCC[C@H](NC(=O)[C@]1(C)CCCC=CCCC[C@](C)(NC(=O)[C@H](C)NC(=O)[C@H](CCCCN)NC(=O)[C@H](CCC(=O)O)NC(=O)[C@H](Cc2ccccc2)NC(=O)[C@H](CCCCN)NC(=O)[C@H](CCCCN)NC(=O)[C@H](C)NC(=O)[C@H](CO)NC(=O)[C@H](Cc2c[nH]cn2)NC(=O)[C@H](CC(C)C)NC(=O)[C@H](Cc2ccccc2)NC(=O)[C@H](CCCCN)NC(=O)CNC(=O)[C@@H](NC(=O)CN)[C@@H](C)CC)C(=O)N[C@@H](C(C)C)C(=O)NCC(=O)N[C@@H](CCC(=O)O)C(=O)N1)C(=O)N[C@@H](CC(N)=O)C(=O)N[C@@H](CO)C(N)=O [Mag(i + 4)15(G13E), GIGKFLHSAKKFEKAXVGEXBNS] (H-GIGKFLHSAKKFEKA[S5]VGE[S5][Nle]NS-NH2; staple 16-20)",2.2,25,>50,>50,>50
"CCCC[C@H](NC(=O)[C@]1(C)CCCC=CCCC[C@](C)(NC(=O)[C@H](C)NC(=O)[C@H](CCCCN)NC(=O)[C@H](CCCCN)NC(=O)[C@H](Cc2ccccc2)NC(=O)[C@H](CCCCN)NC(=O)[C@H](CCCCN)NC(=O)[C@H](C)NC(=O)[C@H](CO)NC(=O)[C@H](Cc2c[nH]cn2)NC(=O)[C@H](CC(C)C)NC(=O)[C@H](Cc2ccccc2)NC(=O)[C@H](CCCCN)NC(=O)CNC(=O)[C@@H](NC(=O)CN)[C@@H](C)CC)C(=O)N[C@@H](C(C)C)C(=O)NCC(=O)N[C@@H](CCC(=O)O)C(=O)N1)C(=O)N[C@@H](CC(N)=O)C(=O)N[C@@H](CO)C(N)=O [Mag(i + 4)15(G13K), GIGKFLHSAKKFKKAXVGEXBNS] (H-GIGKFLHSAKKFKKA[S5]VGE[S5][Nle]NS-NH2; staple 16-20)",1.8,3.1,12.5,>50,>50
"CCCC[C@H](NC(=O)[C@]1(C)CCCC=CCCC[C@](C)(NC(=O)[C@H](C)NC(=O)[C@H](CCCCN)NC(=O)[C@@H]2CCCN2C(=O)[C@H](Cc2ccccc2)NC(=O)[C@H](CCCCN)NC(=O)[C@H](CCCCN)NC(=O)[C@H](C)NC(=O)[C@H](CO)NC(=O)[C@H](Cc2c[nH]cn2)NC(=O)[C@H](CC(C)C)NC(=O)[C@H](Cc2ccccc2)NC(=O)[C@H](CCCCN)NC(=O)CNC(=O)[C@@H](NC(=O)CN)[C@@H](C)CC)C(=O)N[C@@H](C(C)C)C(=O)NCC(=O)N[C@@H](CCC(=O)O)C(=O)N1)C(=O)N[C@@H](CC(N)=O)C(=O)N[C@@H](CO)C(N)=O [Mag(i + 4)15(G13P), GIGKFLHSAKKFPKAXVGEXBNS] (H-GIGKFLHSAKKFPKA[S5]VGE[S5][Nle]NS-NH2; staple 16-20)",2.0,3.1,25,>50,25
CCCC[C@H](NC(=O)[C@]1(C)CCCC=CCCC[C@](C)(NC(=O)[C@H](C)NC(=O)[C@H](CCCCN)NC(=O)[C@@H](C)NC(=O)[C@H](Cc2ccccc2)NC(=O)[C@H](CCCCN)NC(=O)[C@H](CCCCN)NC(=O)[C@H](C)NC(=O)[C@H](CO)NC(=O)[C@H](Cc2c[nH]cn2)NC(=O)[C@H](CC(C)C)NC(=O)[C@H](Cc2ccccc2)NC(=O)[C@H](CCCCN)NC(=O)CNC(=O)[C@@H](NC(=O)CN)[C@@H](C)CC)C(=O)N[C@@H](C(C)C)C(=O)NCC(=O)N[C@@H](CCC(=O)O)C(=O)N1)C(=O)N[C@@H](CC(N)=O)C(=O)N[C@@H](CO)C(N)=O [Mag(i + 4)15(G13a)] (H-GIGKFLHSAKKF[dA]KA[S5]VGE[S5][Nle]NS-NH2; staple 16-20),4.3,1.6,3.1,6.2,6.2
CCCC[C@H](NC(=O)[C@]1(C)CCCC=CCCC[C@](C)(NC(=O)[C@H](C)NC(=O)[C@H](CCCCN)NC(=O)[C@@H](CCCCN)NC(=O)[C@H](Cc2ccccc2)NC(=O)[C@H](CCCCN)NC(=O)[C@H](CCCCN)NC(=O)[C@H](C)NC(=O)[C@H](CO)NC(=O)[C@H](Cc2c[nH]cn2)NC(=O)[C@H](CC(C)C)NC(=O)[C@H](Cc2ccccc2)NC(=O)[C@H](CCCCN)NC(=O)CNC(=O)[C@@H](NC(=O)CN)[C@@H](C)CC)C(=O)N[C@@H](C(C)C)C(=O)NCC(=O)N[C@@H](CCC(=O)O)C(=O)N1)C(=O)N[C@@H](CC(N)=O)C(=O)N[C@@H](CO)C(N)=O [Mag(i + 4)15(G13k)] (H-GIGKFLHSAKKF[dK]KA[S5]VGE[S5][Nle]NS-NH2; staple 16-20),2.1,3.1,25,>50,50
"CCCC[C@H](NC(=O)[C@]1(C)CCCC=CCCC[C@](C)(NC(=O)[C@H](C)NC(=O)[C@H](CCCCN)NC(=O)CNC(=O)[C@H](Cc2ccccc2)NC(=O)[C@H](CCCCN)NC(=O)[C@H](CCCCN)NC(=O)[C@H](C)NC(=O)[C@H](CO)NC(=O)[C@H](Cc2c[nH]cn2)NC(=O)[C@H](CC(C)C)NC(=O)[C@H](Cc2ccccc2)NC(=O)[C@H](CCCCN)NC(=O)CNC(=O)[C@@H](NC(=O)CN)[C@@H](C)CC)C(=O)N[C@@H](C(C)C)C(=O)N[C@@H](CCC(=O)O)C(=O)N[C@@H](CCC(=O)O)C(=O)N1)C(=O)N[C@@H](CC(N)=O)C(=O)N[C@@H](CO)C(N)=O [Mag(i + 4)15(G18E), GIGKFLHSAKKFGKAXVEEXBNS] (H-GIGKFLHSAKKFGKA[S5]VEE[S5][Nle]NS-NH2; staple 16-20)",4.8,3.1,12.5,12.5,6.2
"CCCC[C@H](NC(=O)[C@]1(C)CCCC=CCCC[C@](C)(NC(=O)[C@H](C)NC(=O)[C@H](CCCCN)NC(=O)CNC(=O)[C@H](Cc2ccccc2)NC(=O)[C@H](CCCCN)NC(=O)[C@H](CCCCN)NC(=O)[C@H](C)NC(=O)[C@H](CO)NC(=O)[C@H](Cc2c[nH]cn2)NC(=O)[C@H](CC(C)C)NC(=O)[C@H](Cc2ccccc2)NC(=O)[C@H](CCCCN)NC(=O)CNC(=O)[C@@H](NC(=O)CN)[C@@H](C)CC)C(=O)N[C@@H](C(C)C)C(=O)N[C@@H](Cc2c[nH]cn2)C(=O)N[C@@H](CCC(=O)O)C(=O)N1)C(=O)N[C@@H](CC(N)=O)C(=O)N[C@@H](CO)C(N)=O [Mag(i + 4)15(G18H), GIGKFLHSAKKFGKAXVHEXBNS] (H-GIGKFLHSAKKFGKA[S5]VHE[S5][Nle]NS-NH2; staple 16-20)",6.8,1.6,6.2,6.2,3.1
"CCCC[C@H](NC(=O)[C@]1(C)CCCC=CCCC[C@](C)(NC(=O)[C@H](C)NC(=O)[C@H](CCCCN)NC(=O)CNC(=O)[C@H](Cc2ccccc2)NC(=O)[C@H](CCCCN)NC(=O)[C@H](CCCCN)NC(=O)[C@H](C)NC(=O)[C@H](CO)NC(=O)[C@H](Cc2c[nH]cn2)NC(=O)[C@H](CC(C)C)NC(=O)[C@H](Cc2ccccc2)NC(=O)[C@H](CCCCN)NC(=O)CNC(=O)[C@@H](NC(=O)CN)[C@@H](C)CC)C(=O)N[C@@H](C(C)C)C(=O)N[C@@H](CCCCN)C(=O)N[C@@H](CCC(=O)O)C(=O)N1)C(=O)N[C@@H](CC(N)=O)C(=O)N[C@@H](CO)C(N)=O [Mag(i + 4)15(G18K), GIGKFLHSAKKFGKAXVKEXBNS] (H-GIGKFLHSAKKFGKA[S5]VKE[S5][Nle]NS-NH2; staple 16-20)",10.1,1.6,3.1,12.5,3.1
